Measurements published in article PMC4399838, “Antipsychotic-Like Effect of the Muscarinic Acetylcholine Receptor Agonist BuTAC in Non-Human Primates” (PLoS ONE, 2015).

Assays:
[1] = molecular target: T1, human M2 muscarinic receptor (Homo sapiens, UniProt P08172); parameters: method as in Watt et al. 2013 [10]; settings: agonist mode, ref Watt et al. 2013 [10], cited from earlier work
T1 construct: purchased PerkinElmer Life and Analytical Sciences, Boston, MA
T1 sequence (P08172 1-466): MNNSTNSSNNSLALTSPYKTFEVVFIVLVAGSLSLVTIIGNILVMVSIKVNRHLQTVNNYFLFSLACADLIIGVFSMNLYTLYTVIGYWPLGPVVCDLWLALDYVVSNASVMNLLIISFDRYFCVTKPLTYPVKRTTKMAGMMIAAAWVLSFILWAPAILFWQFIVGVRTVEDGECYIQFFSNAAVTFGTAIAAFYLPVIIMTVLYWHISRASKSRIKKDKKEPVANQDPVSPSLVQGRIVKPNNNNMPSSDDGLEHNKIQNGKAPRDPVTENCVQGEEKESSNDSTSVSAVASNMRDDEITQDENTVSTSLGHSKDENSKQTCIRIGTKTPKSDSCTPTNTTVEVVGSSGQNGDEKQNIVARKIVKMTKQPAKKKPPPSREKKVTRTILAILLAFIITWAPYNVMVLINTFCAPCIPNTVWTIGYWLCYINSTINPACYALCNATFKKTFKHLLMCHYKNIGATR

[2] = molecular target: T2, human M1 muscarinic receptor (Homo sapiens, UniProt P11229); parameters: method as in Watt et al. 2013 [10]; settings: ref Watt et al. 2013 [10], cited from earlier work
T2 construct: purchased PerkinElmer Life and Analytical Sciences, Boston, MA
T2 sequence (P11229 1-460): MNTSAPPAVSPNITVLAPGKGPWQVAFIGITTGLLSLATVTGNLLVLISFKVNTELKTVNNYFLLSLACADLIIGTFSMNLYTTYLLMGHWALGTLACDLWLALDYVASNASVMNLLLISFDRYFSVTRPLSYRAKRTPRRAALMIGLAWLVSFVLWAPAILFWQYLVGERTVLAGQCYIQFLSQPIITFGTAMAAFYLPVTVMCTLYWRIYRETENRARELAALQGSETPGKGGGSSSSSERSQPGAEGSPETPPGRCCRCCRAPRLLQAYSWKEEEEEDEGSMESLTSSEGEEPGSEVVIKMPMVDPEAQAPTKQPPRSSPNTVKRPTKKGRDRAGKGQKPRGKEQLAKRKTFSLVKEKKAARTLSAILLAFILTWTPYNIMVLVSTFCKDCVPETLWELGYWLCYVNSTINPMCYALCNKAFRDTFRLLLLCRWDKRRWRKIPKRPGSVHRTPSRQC

[3] = molecular target: T1, human M2 muscarinic receptor; assay: GTP-γ-[35S] binding, antibody capture SPA (agonist and antagonist mode); format: biochemical
Procedure: The antibody capture scintillation proximity technique previously described by DeLapp et al was used in a 96-well plate to determine GTP-γ-[35S] binding. One hundred μl (20–40 fmol/well) of membrane preparation from CHO cells that stably express the human M1-M5 muscarinic receptors (PerkinElmer Life and Analytical Sciences, Boston, MA) were incubated with varying concentration of test compound (final concentrations from 50pM to 1μM) for 30 min. One μM final concentration of GDP was added to M2 and M4 receptor membranes before incubation. […] (500 pM final concentration; Perkin Elmer Life and Analytical Sciences) was added to each well followed by 30 min of incubation. Then the labelled membranes were solubilized with 0.27% Nonidet P40 for 30 min where after they were incubated with 20 μl (final dilution of 1:400) of the appropriate rabbit polyclonal Gα antibody (Covance, Princeton, NJ) for 60 min. An anti-Gαq/11 antibody was used for the M1-, M3-, and M5 membranes, whereas an anti-Gαi-3 antibody was used for the M2- and M4 membranes (Eli Lilly and Company, Indianapolis, IN). After 60 min of incubation, 50 μl (1.25 mg/well) anti-rabbit scintillation proximity assay (SPA) beads (GE Healthcare, Piscataway, NJ) were added per well where after the plates were incubated for another 3 h. By use of a Wallac MicroBeta TriLux scintillation counter (PerkinElmer), the plates were centrifuged for 10 min at 700 × g and counted for 1 min per well. The incubations took place at room temperature in GTP-binding assay buffer (20 mM Hepes, 100 mm NaCl, 5 mM MgC12, pH 7.4). The data were analyzed by use of nonlinear regression for a sigmoidal concentration response curve (GraphPad Prism v. 4.0). Data were normalized to a full agonist response (100 μM oxotremorine-M). […] The antagonist percent inhibition data were normalized to data generated with an EC90 concentration of acetylcholine. The mean relative EC50, IC50, and %Emax, and pKi values were calculated as a mean of at least three independent experiments±SEM. In order to obtain relevant comparisons between subtypes, the experimental system is routinely calibrated with reference agonists (oxotremorine-M, pilocarpine, MCN-A343) to measure full and partial agonism as well as to ensure that the system is not under- or over-reporting functional efficacies. The radioligand binding assays have earlier been described.

SMILES: CCCCSc1nsnc1[C@H]1CN2CCC[C@H]1C2 [BuTAC, (5R,6R)-6-(3-butylthio-1,2,5-thiadiazol-4-yl)-1-azabicyclo[3.2.1]octane]
- Rel pEC50 ([1]; negative log-transformed): 9.56 ±10.26 M
- % Emax [1]: 136.53 ± 17.20%
- Rel pEC50 ([2]; agonist mode, negative log-transformed): 9.22±9.80 M
- % Emax ([2]; agonist mode): 33.56±6.29%
- Rel pIC50 ([2]; antagonist mode, negative log-transformed): 9.03±10.01 M
- % Inhibition ([2]; antagonist mode): 57.27±2.35%

SMILES: CCCSc1nsnc1[C@H]1CN2CCC[C@H]1C2 [PTAC, (5R,6R) 6-(3-propylthio-1,2,5-thiadiazol-4-yl)-1-azabicyclo-[3.2.1]-octane]
- EC50 [3]: 0.501 nM
- IC50 [3]: 3.47 nM
- % Inhibition ([3]; antagonist mode, maximal inhibition of EC90 agonist response): 16.8 ± 5.49%
- Emax ([3]; percentage of maximum 100 μM oxotremorine-M signal): 68.5 ± 5.23%
